Several values for one entry are separate records, joined by “and”; a condition that tells them apart may be missing. Identical values can stand only once.
Experiments:
[1] = tested on: sex-sorted sperm cells; assay: Percent intact acrosomes (PIA) of sex sorted sperm post-thaw; type: cell-based, bovine; details: for PIA: 3 step
From the text: In the tables below: VAP (average path velocity (μm/s)); VSL (straight-line velocity (μm/s)); VCL (curvilinear velocity (μm/s)); ALH (average lateral head displacement (μm)); BCF (the number of times the sperm head crosses the mean path/s in Hz); STR (percent straight-line sperm motility); LIN (percent linear sperm motility); PIA (percent intact acrosomes); motile (percent motile sperm); and progressive (percent progressively motile sperm).

[2] = tested on: sex-sorted sperm; assay: DNA fragmentation of sex-sorted sperm (Halomax for animals kit); type: cell-based, cattle
Method: The levels of DNA fragmentation were also screened using a DNA fragmentation ‘Halomax for animals’ kit (Halotech DNA, sl, Madrid, Spain) to determine if there were any advantageous effects of using the antioxidants during the staining and processing of sex-sorted sperm. Two different breeds of cattle, Jersey and Holstein, were examined using two different concentrations of antioxidant, 0.25 mg/ml and 0.5 mg/ml of vitamin B12 with the 3 step protocol adding the same concentration of OSR during cell staining, in the collection catch fluid and prior to cryopreservation. One of the bulls was used to evaluate the effect of addition or omission of OSR at one or more of the sperm sorting steps. Motility and the level of DNA fragmentation were both recorded.

O=C(O)CCC(=O)C(=O)O [AKG, Alpha-ketoglutarate]
PIA ([1]; Holstein 3 hr post-thaw (1st block), .25 mg/ml): 89
PIA ([1]; Holstein 3 hr post-thaw (1st block), .35 mg/ml): 80
PIA ([1]; Holstein 3 hr post-thaw (1st block), .45 mg/ml): 80
PIA ([1]; Holstein 3 hr post-thaw (2nd block), .25 mg/ml): 89
PIA ([1]; Holstein 3 hr post-thaw (2nd block), .35 mg/ml): 80
PIA ([1]; Holstein 3 hr post-thaw (2nd block), .45 mg/ml): 80
PIA ([1]; Holstein 6 hr post-thaw (1st block), .25 mg/ml): 73
PIA ([1]; Holstein 6 hr post-thaw (1st block), .35 mg/ml): 85
PIA ([1]; Holstein 6 hr post-thaw (1st block), .45 mg/ml): 79
PIA ([1]; Holstein 6 hr post-thaw (2nd block), .25 mg/ml): 73
PIA ([1]; Holstein 6 hr post-thaw (2nd block), .35 mg/ml): 85
PIA ([1]; Holstein 6 hr post-thaw (2nd block), .45 mg/ml): 79
PIA ([1]; Jersey 3 hr post-thaw, .25 mg/ml): 62
PIA ([1]; Jersey 3 hr post-thaw, .35 mg/ml): 54
PIA ([1]; Jersey 3 hr post-thaw, .45 mg/ml): 71

vitamin B12
% DNA Fragmentation ([2]; 0 hr, 1 step-stain (+−−), Bull C (Jersey), Trial 1): 0.7%
% DNA Fragmentation ([2]; 0 hr, 1 step-stain (+−−), Bull C (Jersey), Trial 2): 0.7%
% DNA Fragmentation ([2]; 0 hr, 2 step-stain (++−), Bull C (Jersey), Trial 1): 0.3%
% DNA Fragmentation ([2]; 0 hr, 2 step-stain (++−), Bull C (Jersey), Trial 2): 0.3%
% DNA Fragmentation ([2]; 0 hr, 3 step (+++), Bull C (Jersey), Trial 1): 0%
% DNA Fragmentation ([2]; 0 hr, 3 step (+++), Bull C (Jersey), Trial 2): 0.3%
% DNA Fragmentation ([2]; 0 hr, vitamin B12 0.5 mg/ml, 3 step, Bull A (Jersey)): 0.3%
% DNA Fragmentation ([2]; 0 hr, vitamin B12 0.5 mg/ml, 3 step, Bull B (Holstein)): 0.3%
% DNA Fragmentation ([2]; 24 hr, 1 step-stain (+−−), Bull C (Jersey), Trial 1): 1%
% DNA Fragmentation ([2]; 24 hr, 1 step-stain (+−−), Bull C (Jersey), Trial 2): 1%
% DNA Fragmentation ([2]; 24 hr, 2 step-stain (++−), Bull C (Jersey), Trial 1): 1%
% DNA Fragmentation ([2]; 24 hr, 2 step-stain (++−), Bull C (Jersey), Trial 2): 0.7%
% DNA Fragmentation ([2]; 24 hr, 3 step (+++), Bull C (Jersey), Trial 1): 0.3%
% DNA Fragmentation ([2]; 24 hr, 3 step (+++), Bull C (Jersey), Trial 2): 0.3%
% DNA Fragmentation ([2]; 24 hr, vitamin B12 0.5 mg/ml, 3 step, Bull A (Jersey)): 0.7%
% DNA Fragmentation ([2]; 24 hr, vitamin B12 0.5 mg/ml, 3 step, Bull B (Holstein)): 0.3%
% DNA Fragmentation ([2]; 48 hr, 1 step-stain (+−−), Bull C (Jersey), Trial 1): 1.3%
% DNA Fragmentation ([2]; 48 hr, 1 step-stain (+−−), Bull C (Jersey), Trial 2): 1%
% DNA Fragmentation ([2]; 48 hr, 2 step-stain (++−), Bull C (Jersey), Trial 1): 1%
% DNA Fragmentation ([2]; 48 hr, 2 step-stain (++−), Bull C (Jersey), Trial 2): 0.7%
% DNA Fragmentation ([2]; 48 hr, 3 step (+++), Bull C (Jersey), Trial 1): 0.3%
% DNA Fragmentation ([2]; 48 hr, 3 step (+++), Bull C (Jersey), Trial 2): 0.7%
% DNA Fragmentation ([2]; 48 hr, vitamin B12 0.5 mg/ml, 3 step, Bull A (Jersey)): 1.3%
% DNA Fragmentation ([2]; 48 hr, vitamin B12 0.5 mg/ml, 3 step, Bull B (Holstein)): 0.7%
PIA (percent intact acrosomes) ([1]; 0.5 mg/ml, 2 step F, 3 hrs post-thaw, Bulls 1-5): 84% and 87% and 88% and 79% and 74%
PIA ([1]; .15 mg/ml, Holstein, 1M/straw, 3 hr post-thaw): 66
PIA ([1]; .15 mg/ml, Holstein, 2.1M/straw, 3 hr post-thaw): 72
PIA ([1]; .15 mg/ml, Jersey, 2.1M/straw, 3 hr post-thaw): 63
PIA ([1]; .25 mg/ml, Holstein, 1M/straw, 3 hr post-thaw): 58
PIA ([1]; .25 mg/ml, Holstein, 2.1M/straw, 3 hr post-thaw): 76
PIA ([1]; .25 mg/ml, Holstein, 5M/straw, 3 hr post-thaw): 68
PIA ([1]; .25 mg/ml, Jersey, 2.1M/straw, 3 hr post-thaw): 78
PIA ([1]; .35 mg/ml, Holstein, 1M/straw, 3 hr post-thaw): 70
PIA ([1]; .35 mg/ml, Holstein, 2.1M/straw, 3 hr post-thaw): 60
PIA ([1]; .35 mg/ml, Holstein, 5M/straw, 3 hr post-thaw): 69
PIA ([1]; .5 mg/ml, Holstein, 5M/straw, 3 hr post-thaw): 50

Reference: patent US10226041B2, “Compositions and methods for improving the quality of processed sperm” (Inguran, LLC, priority 2011, dated 2019)
